In US20060240048A1 (priority 2002, published 2006):

Target: T1, human cannabinoid CB2 receptor (Homo sapiens, UniProt P34972)
T1 construct: expressed in transfected cells; host or cells: Saccharomyces cerevisiae strain MMY23
Assay: Cannabinoid CB2 receptor agonist activity, yeast reporter assay (FDGlu fluorescence);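 for Emax: 100% equals maximal response of reference agonist HU210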
Format: cell-based
Conditions: for Emax: read-out: efficacy value (Emax) at the cloned human cannabinoid CB2 receptor
Procedure: The cannabinoid CB2 receptor agonist activity of the compounds of formula (I) was determined in accordance with the following experimental method.
Yeast (Saccharomyces cerevisiae) cells expressing the human cannabinoid CB2 receptor were generated by integration of an expression cassette into the ura3 chromosomal locus of yeast strain MMY23. This cassette consisted of DNA sequence encoding the human CB2 receptor flanked by the yeast GPD promoter to the 5′ end of CB2 and a yeast transcriptional terminator sequence to the 3′ end of CB2. MMY23 expresses a yeast/mammalian chimeric G-protein alpha subunit in which the C-terminal 5 amino acids of Gpa1 are replaced with the C-terminal 5 amino acids of human Gαi3 (as described in Brown et al. (2000), Yeast 16:11-22). Cells were grown at 30° C. in liquid Synthetic Complete (SC) yeast media (Guthrie and Fink (1991), Methods in Enzymology, Vol. 194) lacking uracil, tryptophan, adenine and leucine to late logarithmic phase (approximately 6 OD600/ml).
Agonists were prepared as 10 mM stocks in DMSO. […] Agonist solutions in DMSO (1% final assay volume) were transferred into black, clear bottom, microtitre plates from NUNC (96- or 384-well). […] This mixture (50 ul per well for 384-well plates, 200 ul per well for 96-well plates) was added to agonist in the assay plates (Multidrop 384, Labsystems). After incubation at 30° C. for 24 hours, fluorescence resulting from degradation of FDGlu to fluorescein due to exoglucanase, an endogenous yeast enzyme produced during agonist-stimulated cell growth, was determined using a Spectrofluor microtitre plate reader (Tecan; excitation wavelength: 485 nm; emission wavelength: 535 nm). Fluorescence was plotted against compound concentration and iteratively curve fitted using a four parameter fit to generate a concentration effect value.
where Max[compound X] and Min[compound X] are the fitted maximum and minimum respectively from the concentration effect curve for compound X, and Max[HU210] and Min[HU210] are the fitted maximum and minimum respectively from the concentration effect curve for (6aR,10aR)-3-(1,1′-Dimethylheptyl)-6a,7,10,10a-tetrahydro-1-hydroxy-6,6-dimethyl-6H-dibenzo[b,d]pyran-9-methanol (HU210; available from Tocris). Equieffective molar ratio (EMR) values were calculated from the equation EMR=EC50 [compound X]/EC50 [HU210]
Where EC50 [compound X] is the EC50 of compound X and EC50 [HU210] is the EC50 of HU210.

T1 sequence (P34972 whole entry): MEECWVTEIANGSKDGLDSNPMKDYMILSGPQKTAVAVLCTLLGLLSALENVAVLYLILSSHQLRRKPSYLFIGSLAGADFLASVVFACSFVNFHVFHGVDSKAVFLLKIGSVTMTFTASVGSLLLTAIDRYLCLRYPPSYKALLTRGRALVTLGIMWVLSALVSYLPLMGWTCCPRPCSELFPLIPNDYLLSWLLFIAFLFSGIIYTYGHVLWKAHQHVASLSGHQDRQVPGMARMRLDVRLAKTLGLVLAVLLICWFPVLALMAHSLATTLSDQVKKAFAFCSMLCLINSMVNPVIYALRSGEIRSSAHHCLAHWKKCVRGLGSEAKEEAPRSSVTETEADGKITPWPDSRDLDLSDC

O=C(NCC1CCCCC1)c1cnc(Nc2cccc(Cl)c2)cc1C(F)(F)F [Example 1, 2-(3-Chlorophenylamino)-4-trifluoromethylpyridine-5-carboxylic acid cyclohexylmethyl amide]
Emax: > 50%

CC(C)c1cc(Nc2cccc(Cl)c2)ncc1C(=O)NCC1CCCCC1 [Example 2, 6-(3-Chlorophenylamino)-N-cyclohexylmethyl-4-isopropylnicotinamide]
EC50: < 300 nM | Emax: > 50%

CC(C)c1cc(Nc2ccc(Cl)c(Cl)c2)ncc1C(=O)NCC1CCCCC1 [Example 3, N-Cyclohexylmethyl-6-(3,4-dichloro-phenylamino)-4-isopropyl-nicotinamide]
EC50: < 300 nM | Emax: > 50%

CC(C)c1cc(Nc2ccc(Cl)cc2Cl)ncc1C(=O)NCC1CCCCC1 [Example 5, N-Cyclohexylmethyl-6-(2,4-dichloro-phenylamino)-4-isopropyl-nicotinamide]
EC50: < 300 nM | Emax: > 50%

CC(C)c1cc(Nc2cccc(Cl)c2)ncc1C(=O)NCC1CCC1 [Example 6, 6-(3-Chloro-phenylamino)-N-cyclobutylmethyl-4-isopropyl-nicotinamide]
EC50: < 300 nM | Emax: > 50%

CC(C)c1cc(Nc2cccc(Cl)c2)ncc1C(=O)NCC1CCOCC1 [Example 7, 6-(3-Chloro-phenyl-amino)-4-isopropyl-N-(tetrahydro-pyran-4-ylmethyl)-nicotinamide]
Emax: > 50%

CC(C)c1cc(Nc2cccc(Br)c2)ncc1C(=O)NCC1CCOCC1 [Example 8, 6-(3-Bromo-phenyl-amino)-4-isopropyl-N-(tetrahydro-pyran-4-ylmethyl)-nicotinamide]
Emax: > 50%

COc1cccc(Nc2cc(C(C)C)c(C(=O)NCC3CCCCC3)cn2)c1 [Example 9, N-Cyclohexylmethyl-4-isopropyl-6-(3-methoxy-phenylamino)-nicotinamide]
EC50: < 300 nM | Emax: > 50%

CC(C)c1cc(Nc2cccc(F)c2)ncc1C(=O)NCC1CCCCC1 [Example 10, N-Cyclohexylmethyl-6-(3-fluoro-phenylamino)-4-isopropyl-nicotinamide]
EC50: < 300 nM | Emax: > 50%

CC(C)c1cc(Nc2cccc(Cl)c2)ncc1C(=O)N1CCOCC1 [Example 11, 1-[6-(3-Chloro-phenylamino)-4-isopropyl-pyridin-3-yl]-1-morpholin-4-yl-methanone]
EC50: < 300 nM | Emax: > 50%

CC(C)c1cc(Nc2cccc(Br)c2)ncc1C(=O)NCC1CCCCC1 [Example 12, 6-(3-Bromo-cyclohexylmethyl-4-phenylamino)-N-isopropyl-nicotinamide]
EC50: < 300 nM | Emax: > 50%

Cc1cccc(Nc2cc(C(C)C)c(C(=O)NCC3CCCCC3)cn2)c1 [Example 13, N-Cyclohexylmethyl-4-isopropyl-6-m-tolytamino-nicotinamide]
EC50: < 300 nM | Emax: > 50%

CC(C)c1cc(Nc2cccc(C(F)(F)F)c2)ncc1C(=O)NCC1CCCCC1 [Example 14, N-Cyclohexylmethyl-4-isopropyl-6-(3-trifluoromethyl-phenylamino)-nicotinamide]
EC50: < 300 nM | Emax: > 50%

CC(C)c1cc(Nc2cccc(OC(F)(F)F)c2)ncc1C(=O)NCC1CCCCC1 [Example 15, N-Cyclohexylmethyl-4-isopropyl-6-(3-trifluoromethoxy-phenylamino)-nicotinamide]
EC50: < 300 nM | Emax: > 50%

CC(C)c1cc(Nc2cccc(Cl)c2Cl)ncc1C(=O)NCC1CCOCC1 [Example 16, 6-(2,3-Dichloro-phenylamino)-4-isopropyl-N-(tetrahydro-pyran-4-ylmethyl)-nicotinamide]
EC50: < 300 nM | Emax: > 50%

CC(C)c1cc(Nc2ccc(Cl)cc2Cl)ncc1C(=O)NCC1CCOCC1 [Example 17, 6-(2,4-Dichloro-phenylamino)-4-isopropyl-N-(tetrahydro-pyran-4-ylmethyl)-nicotinamide]
Emax: > 50%

CC(C)c1cc(Nc2ccc(Cl)c(Cl)c2)ncc1C(=O)NCC1CCOCC1 [Example 18, 6-(3,4-Dichloro-phenylamino)-4-isopropyl-N-(tetrahydro-pyran-4-ylmethyl)-nicotinamide]
EC50: < 300 nM | Emax: > 50%

CC(C)c1cc(Nc2cccc(C(F)(F)F)c2)ncc1C(=O)NCC1CCOCC1 [Example 19, 4-Isopropyl-N-(tetrahydro-pyran-4-ylmethyl)-6-(3-trifluoromethyl-phenylamino) nicotinamide]
EC50: < 300 nM | Emax: > 50%

CC(C)c1cc(Nc2cccc(OC(F)(F)F)c2)ncc1C(=O)NCC1CCOCC1 [Example 20, 4-Isopropyl-N-(tetrahydro-pyran-4-ylmethyl)-6-(3-trifluoromethoxy-phenylamino) nicotinamide]
EC50: < 300 nM | Emax: > 50%

CC(C)c1cc(Nc2cccc(Cl)c2)ncc1C(=O)NCC1CCCC1 [Example 21, 6-[(3-Chloro-phenyl)amino]-N-(cyclopentylmethyl)-4-isopropyl-nicotinamide]
Emax: > 50%

CC(C)c1cc(Nc2cccc(F)c2)ncc1C(=O)NCC1CCCC1 [Example 22, N-Cyclopentylmethyl-6-(3-fluorophenylamino)-4-isopropyl-nicotinamide]
EC50: < 300 nM | Emax: > 50%

CC(C)c1cc(Nc2cccc(C(F)(F)F)c2)ncc1C(=O)NCC1CCCC1 [Example 23, N-Cyclopentylmethyl-4-isopropyl-6-(3-trifluoromethyl-phenylamino)-nicotinamide]
EC50: < 300 nM | Emax: > 50%

Cc1cccc(Nc2cc(C(C)C)c(C(=O)NCC3CCCC3)cn2)c1 [Example 24, N-Cyclopentylmethyl-4-isopropyl-6-m-tolylamino-nicotinamide]
EC50: < 300 nM | Emax: > 50%

CC(C)c1cc(Nc2cccc(OC(F)(F)F)c2)ncc1C(=O)NCC1CCCC1 [Example 25, N-Cyclopentylmethyl-4-isopropyl-6-(3-trifluoromethoxy-phenylamino)-nicotinamide]
EC50: < 300 nM | Emax: > 50%

CC(C)c1cc(Nc2cccc(Br)c2)ncc1C(=O)NCC1CCCC1 [Example 26, 6-(3-Bromophenylamino)-N-cyclopentylmethyl-4-isopropyl-nicotinamide]
EC50: < 300 nM | Emax: > 50%

COc1cccc(Nc2cc(C(C)C)c(C(=O)NCC3CCCC3)cn2)c1 [Example 27, N-Cyctopentylmethyl-4-isopropyl-6-(3-methoxyphenylamino) nicotinamide]
EC50: < 300 nM | Emax: > 50%

CC(C)c1cc(Nc2cccc(C#N)c2)ncc1C(=O)NCC1CCCC1 [Example 28, 6-(3-Cyano-phenylamino)-N-cyclopentylmethyl-4-isopropyl-nicotinamide]
EC50: < 300 nM | Emax: > 50%

CC(C)c1cc(Nc2ccc(F)cc2Cl)ncc1C(=O)NCC1CCCC1 [Example 29, 6-(2-Chloro-4-fluoro-phenylamino)-N-cyclopentylmethyl-4-isopropyl-nicotinamide]
EC50: < 300 nM | Emax: > 50%

CC(C)c1cc(Nc2ccc(C#N)cc2Cl)ncc1C(=O)NCC1CCCC1 [Example 30, 6-(2-Chloro-4-cyano-phenylamino)-N-cyclopentylmethyl-4-isopropyl-nicotinamide]
EC50: < 300 nM | Emax: > 50%

CC(C)c1cc(Nc2ccc(Cl)cc2Cl)ncc1C(=O)NCC1CCCC1 [Example 31]
EC50: < 300 nM | Emax: > 50%

CC(C)c1cc(Nc2ccc(Cl)c(Cl)c2)ncc1C(=O)NCC1CCCC1 [Example 32]
EC50: < 300 nM | Emax: > 50%

CC(C)c1cc(Nc2cccc(Br)c2)ncc1C(=O)NCC1CCC1 [Example 33, 6-(3-Bromo-phenylamino)-N-cyclobutylmethyl-4-isopropyl-nicotinamide]
EC50: < 300 nM | Emax: > 50%

CC(C)c1cc(Nc2cccc(F)c2)ncc1C(=O)NCC1CCC1 [Example 34, N-Cyclobutylmethyl-6-(3-fluoro-phenylamino)-4-isopropyl-nicotinamide]
EC50: < 300 nM | Emax: > 50%

CC(C)c1cc(Nc2cccc(C(F)(F)F)c2)ncc1C(=O)NCC1CCC1 [Example 35, N-Cyclobutylmethyl-6-(3-trifluoromethyl-phenylamino)-4-]
EC50: < 300 nM | Emax: > 50%

CC(C)c1cc(Nc2cccc(C#N)c2)ncc1C(=O)NCC1CCC1 [Example 36, 6-(3-Cyano-phenylamino)-N-cyclobutylmethyl-4-isopropyl-nicotinamide]
EC50: < 300 nM | Emax: > 50%

Cc1cccc(Nc2cc(C(C)C)c(C(=O)NCC3CCC3)cn2)c1 [Example 37, N-Cyclobutylmethyl-4-isopropyl-6-m-tolylamino-nicotinamide]
Emax: > 50%
